The values that follow come from PMC12305494, “Discovery of PXR Antagonist MI891 and PXR Degrader MI1013 and Their Roles in Hepatic Gene Regulation” (Journal of Medicinal Chemistry, 2025).

Data set [1] can be described thus: Microsomal stability, mouse microsomes. Particulars: liver microsomes; for half-life at 5 μM: 0.5 mg/mL mouse microsomes, up to 45 min, read-out: Microsomal stability, t1/2 (min), mouse. It is filed as in vitro ADME. How it is done: (§1) The protocols and reagents for the plasma protein binding assay and metabolic stability testing in human and mouse liver microsomes are detailed in our previous report. […] The stability of compounds was tested in human and mouse microsomes (ThermoFisher Scientific). Compounds were tested in triplicate with or without NADPH wells as a negative control for cytochrome P450 metabolism. […] Each assay included a substrate with known activity as a positive control. Time points were analyzed by LC/MS/MS. The peak area for the parent compound is compared to the time zero sample in order to assess the amount of remaining compound.

Data set [2] concerns the target T1, human CAR LBD (Homo sapiens, UniProt Q14994).
T1 sequence (Q14994 103-352): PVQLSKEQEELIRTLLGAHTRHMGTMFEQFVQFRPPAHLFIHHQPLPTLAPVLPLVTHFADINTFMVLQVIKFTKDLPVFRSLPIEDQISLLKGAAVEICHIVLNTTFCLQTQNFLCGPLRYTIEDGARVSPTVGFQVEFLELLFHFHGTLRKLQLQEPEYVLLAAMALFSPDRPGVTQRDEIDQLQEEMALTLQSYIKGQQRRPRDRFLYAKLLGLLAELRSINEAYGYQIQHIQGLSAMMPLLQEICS
The data set can be described thus: LanthaScreen TR-FRET CAR Coactivator assay. The class given is biochemical. Particulars: nb = no binding. How it is done:
We utilized the LanthaScreen TR-FRET CAR Coactivator Binding Assay Kit, goat (Thermo Fisher Scientific, Cat. No. PV4836), which includes GST-tagged human CAR LBD and a fluorescein-labeled PGC1α coactivator peptide. The assay was performed with slight modifications to the manufacturer’s protocol, as previously reported. […] The interaction with the PXR ligand-binding domain (LBD) was assessed using the LanthaScreen TR-FRET PXR Competitive Binding Assay (Thermo Fisher Scientific, PV4839), as previously described. This assay quantifies the ability of test compounds to displace a fluorescent PXR ligand from the receptor. Fluorescence readings were taken on a Synergy 2 Multi-Mode Microplate Reader (BioTek, Winooski, VT). The half-maximal inhibitory concentration (IC50) for PXR LBD was calculated from at least eight data points using GraphPad Prism software.

Data set [3] is described as follows: Plasma stability, mouse plasma. It is filed as in vitro ADME. The following applies: up to 120 min, read-out: Plasma stability, t1/2 (min), mouse. On the procedure: The protocols and reagents for the plasma protein binding assay and metabolic stability testing in human and mouse liver microsomes are detailed in our previous report. Briefly, metabolic stability of compounds was assessed at a single concentration (5 μM) at t = 0, 10, 30, and at t = 45 min. The stability of compounds was tested in human and mouse microsomes (ThermoFisher Scientific). Compounds were tested in triplicate with or without NADPH wells as a negative control for cytochrome P450 metabolism. In addition to hepatic metabolism, compounds were also subjected to degradation/modification by enzymes in human (VWR International) and mouse (Biomedica, CZ) plasma for t = 0, 30, 60, and at t = 120 min. Each assay included a substrate with known activity as a positive control. Time points were analyzed by LC/MS/MS. The peak area for the parent compound is compared to the time zero sample in order to assess the amount of remaining compound.

Data set [4] in a line: Microsomal stability, human microsomes. The class given is in vitro ADME. The following applies: liver microsomes; for half-life at 5 μM: 0.5 mg/mL human microsomes, up to 45 min, read-out: Microsomal stability, t1/2 (min), human; for microsomal CLint at 5 μM: human microsomes, read-out: Microsomal clearance CLint (μl/min/mg), human. On the procedure:
as §1

The target in data set [5] is T2, human CAR LBD (Homo sapiens, UniProt Q14994).
T2 construct: constructs encoding helices 3–12 and helix 1 of human CAR LBD; expressed in transfected cells; host or cells: HepG2
T2 sequence (Q14994 103-150 isoform Q14994-2 limits assumed): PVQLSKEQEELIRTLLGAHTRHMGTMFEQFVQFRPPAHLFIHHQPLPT
T2 sequence (Q14994 151-348 isoform Q14994-2 limits assumed): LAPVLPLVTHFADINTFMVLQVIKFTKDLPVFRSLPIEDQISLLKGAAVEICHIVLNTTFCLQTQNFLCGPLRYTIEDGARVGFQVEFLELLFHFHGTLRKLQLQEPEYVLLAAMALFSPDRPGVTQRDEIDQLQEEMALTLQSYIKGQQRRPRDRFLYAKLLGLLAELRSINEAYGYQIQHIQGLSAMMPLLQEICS
The data set can be described thus: CAR LBD assembly assay (CAR AA). It is filed as cell-based. Particulars: na = no activity; tox = cytotoxicity in HepG2 cells. From the text: The CAR LBD assembly assay used constructs encoding helices 3–12 and helix 1 of human CAR LBD as described before. GL4.31[luc2P/GAL4UAS/Hygro] (pGAL4 UAS-luc) luciferase reporter vector and pRL-TK Renilla expression vector (Promega) were used in the assay in HepG2 cells transfected using Lipofectamine 3000.

Data set [6] addresses T3, PXR (Homo sapiens, UniProt O75469).
T3 sequence (O75469 1-434): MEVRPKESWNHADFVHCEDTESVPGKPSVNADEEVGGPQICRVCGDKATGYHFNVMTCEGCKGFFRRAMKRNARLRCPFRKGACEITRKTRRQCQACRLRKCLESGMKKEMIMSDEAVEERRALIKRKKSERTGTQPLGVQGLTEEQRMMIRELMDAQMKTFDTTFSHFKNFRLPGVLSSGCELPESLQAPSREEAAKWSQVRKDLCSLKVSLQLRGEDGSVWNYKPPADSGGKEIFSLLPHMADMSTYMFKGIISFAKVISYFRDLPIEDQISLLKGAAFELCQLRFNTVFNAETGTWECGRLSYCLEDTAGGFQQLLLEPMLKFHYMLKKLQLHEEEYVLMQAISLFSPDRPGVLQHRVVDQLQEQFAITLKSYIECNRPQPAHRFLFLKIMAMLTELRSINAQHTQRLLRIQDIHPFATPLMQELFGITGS
The data set can be described thus: cell-based. Particulars: PXR antagonism: PXR inhibition (IC50, μM), antagonist mode with 10 μM rifampicin; mean ± SD, n = 3.

Data set [7] can be described thus: Plasma stability, human plasma. The class given is in vitro ADME. Particulars: up to 120 min, read-out: Plasma stability, t1/2 (min), human.
Data set [8] relates to PXR. More on the design: method as in not given. Particulars: ref not given, cited from earlier work.
The target in data set [9] is T4, triple mutant (S208W/S247W/C284W) PXR LBD (Homo sapiens, UniProt O75469, C284W/S208W/S247W).
T4 construct: the GAL4-PXR-LBD triple mutants (S247W/C284W/S208W) construct; expressed in transfected cells; host or cells: HepG2
T4 sequence (O75469 146-433 S208W/S247W/C284W limits assumed): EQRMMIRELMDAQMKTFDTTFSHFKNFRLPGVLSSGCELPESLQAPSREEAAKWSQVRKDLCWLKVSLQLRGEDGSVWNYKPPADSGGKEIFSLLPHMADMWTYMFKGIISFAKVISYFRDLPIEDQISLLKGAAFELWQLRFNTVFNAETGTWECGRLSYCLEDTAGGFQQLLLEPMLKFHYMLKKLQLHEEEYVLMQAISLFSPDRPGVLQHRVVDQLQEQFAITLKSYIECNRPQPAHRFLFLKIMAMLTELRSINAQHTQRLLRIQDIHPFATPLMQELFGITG
The data set can be described thus: Mammalian two-hybrid assay, obstructed triple mutant PXR LBD with SRC-1-VP16 in HepG2. It is filed as cell-based. The text has this: (§2) Additionally, the GAL4-PXR-LBD triple mutants (S247W/C284W/S208W) construct and wild-type GAL4-wtPXR vector were used for PXR LBD mutant functional two-hybrid assay as we described before. In the mammalian two-hybrid assay, HepG2 cells were cotransfected with a GAL4-hPXR LBD construct and pSCR1-VP16 construct. Renilla luciferase vector was used for the normalization of firefly luciferase activity to Renilla luciferase activity.

The next data set has as its system HepaRG cells. The data set can be described thus: RT-qPCR gene expression in differentiated HepaRG cells. The class given is cell-based, human. Particulars: 48 h. How it is done:
HepaRG cells (Sigma-Aldrich/Merck) were cultivated and differentiated on 12-well plates. Seeded at 26,600 cells/cm^2, they were maintained in William’s medium with supplements. After 14 days, differentiation into hepatocyte-like cells was induced using 1.5% DMSO for another 14 days.
RT-qPCR was utilized to investigate gene expression in HepaRG and PHH. Total RNA was extracted from these cells using the phenol–chloroform method. The concentration of the isolated RNA was then measured using a Nanodrop 1000 spectro-photometer (Thermo Fisher Scientific).
Following RNA isolation, reverse transcription was performed to convert RNA into complementary DNA (cDNA). This step was carried out using the High-capacity cDNA reverse transcription kit (Cat. No. 4374966, ThermoFisher Scientific). The resulting cDNA served as the template for subsequent qPCR reactions.
The qPCR reactions were conducted on the QuantStudio 6 Flex Real-Time PCR System (ThermoFisher Scientific, Waltham, Mas-sachusetts). For these reactions, TaqMan Universal master mix II (Cat. No. 4440047, ThermoFisher Scientific) and TaqMan assays (FAM) utilized in this study are detailed in the Supporting Information. To quantify gene expression, the cycle threshold (Ct) values of the target genes were normalized to the Ct values of reference genes HPRT1 or GAPDH (HepaRG) or TBP (PHH). The normalized values were then expressed as fold changes (2−ΔΔCt) relative to the DMSO control at the specified time points, with the control set as 1.

The target of the next data set is T5, wild-type PXR LBD (Homo sapiens, UniProt O75469).
T5 construct: HepG2 cells were cotransfected with a GAL4-hPXR LBD construct and pSCR1-VP16 construct; expressed in transfected cells; host or cells: HepG2
T5 sequence (O75469 146-433 limits assumed): T4 sequence (O75469 146-433 S208W/S247W/C284W limits assumed) with W63S, W102S, W139C
The data set can be described thus: Mammalian two-hybrid assay, wt-PXR LBD with SRC-1-VP16 in HepG2. The following applies: MI891 at 10 μM. The class given is cell-based.
Source text: as §2

The test system of data set [10] is PXR. The arrangement: method as in not given. The following applies: read-out: Ki printed beside SPA70 in Figure 6A; ref not given; cited from earlier work.

SMILES strings stand for the structures. Numbering of substitutions follows the chain as printed. Like-named read-outs stand apart in the source and are kept apart here.

Consider `NC(=O)c1cc(Cn2cc(-c3c(-c4ccc(Cl)cc4)nc4c(F)cccn34)nn2)ccc1Cl` [Compound 8, 2-Chloro-5-((4-(2-(4-chlorophenyl)-8-fluoroimidazo[1,2-a]pyridin-3-yl)-1H-1,2,3-triazol-1-yl)methyl)benzamide], for which the half-life at 5 μM in [1] was found to be 8 min; in [4], 50 ± 4 min. For the same molecule, the microsomal CLint at 5 μM in data set [1] (mouse microsomes, read-out: Microsomal clearance CLint (μl/min/mg), mouse) was determined as 168 ± 8 µL/min/mg; in data set [4], 28 ± 2 µL/min/mg. For the same molecule, at human CAR LBD [2], the “CAR TR-FRET (EC50, μM)” value is “nb”. In addition, the half-life in data set [3] and in [7] was more than 120 min in each case. This molecule also registered an EC50 on human CAR LBD [5] of 4.14 ± 0.2 µM. In addition, the IC50 on PXR [6] was 12.4 ± 6 µM.

Regarding `NC(=O)c1cc(Cn2cc(-c3c(-c4ccc(Cl)cc4)nc4ccc(F)cn34)nn2)ccc1Cl` [Compound 10, 2-Chloro-5-((4-(2-(4-chlorophenyl)-6-fluoroimidazo[1,2-a]pyridin-3-yl)-1H-1,2,3-triazol-1-yl)methyl)benzamide], the results for the half-life at 5 μM in data set [1] and in data set [4] were more than 45 min and 55 ± 9 min, respectively. Further, on human CAR LBD [2], the “CAR TR-FRET (EC50, μM)” value is “nb”. The half-life in data set [3] and in [7] was more than 120 min throughout. Moreover, the microsomal CLint at 5 μM in data set [4] turned out to be 26 ± 4 µL/min/mg. The EC50 on human CAR LBD [5] is more than 10 µM. Further, the IC50 at PXR [6] is 6.46 ± 0.6 µM.

In the case of `CCC[C@H](CC)Oc1ccc(C(=O)OC)cc1NC(=O)c1nnn(-c2cc(OC)ccc2OC)c1C` [SJPYT-331], the IC50 with PXR [8] (quoted in the Introduction, read-out: PXR antagonist IC50) is 0.0071 ± 0.0008 µM.

With `COc1ccc(OC)c(-n2nnc(S(=O)(=O)c3ccc(C(C)(C)C)cc3)c2C)c1` [SPA70, reference compound], the “activation of obstructed mutated PXR LBD two-hybrid” value in data set [9] is “Neither MI891 nor SPA70 activated the obstructed mutated PXR LBD”. Further, in the data set on HepaRG cells (MI891 5 μM, SPA70 5 μM), the CYP2B6 gene expression entry is given as “downregulated”. In addition, the “CYP3A4 mRNA expression” value with HepaRG cells (alone or with rifampicin (5 μM), concentration-dependent) is on record as “CYP3A4 mRNA suppression”. Further, in the data set with PXR [8] (read-out: IC50 printed beside SPA70 in Figure 6A), the IC50 was […]. For the same molecule, the “effect on wt-PXR-LBD/SRC1-VP16 two-hybrid” value on wild-type PXR LBD is “activated the wild-type (wt) PXR LBD construct”. The inhibition constant Ki with PXR [10] is […].
